Assay results published in ChEMBL document CHEMBL5137055, “Near-Infrared Fluorescent Probes as Imaging and Theranostic Modalities for Amyloid-Beta and Tau Aggregates in Alzheimer's Disease” (J Med Chem, 2022).

Assays:
[1] = Binding affinity to insoluble amyloid beta (unknown origin); set-up: species or system Homo sapiens
[2] = Binding affinity to soluble amyloid beta (unknown origin); set-up: species or system Homo sapiens
Albumin = Albumin (Bos taurus, UniProt P02769); test: Binding affinity to bovine serum albumin
Sequence of Albumin (P02769 whole entry): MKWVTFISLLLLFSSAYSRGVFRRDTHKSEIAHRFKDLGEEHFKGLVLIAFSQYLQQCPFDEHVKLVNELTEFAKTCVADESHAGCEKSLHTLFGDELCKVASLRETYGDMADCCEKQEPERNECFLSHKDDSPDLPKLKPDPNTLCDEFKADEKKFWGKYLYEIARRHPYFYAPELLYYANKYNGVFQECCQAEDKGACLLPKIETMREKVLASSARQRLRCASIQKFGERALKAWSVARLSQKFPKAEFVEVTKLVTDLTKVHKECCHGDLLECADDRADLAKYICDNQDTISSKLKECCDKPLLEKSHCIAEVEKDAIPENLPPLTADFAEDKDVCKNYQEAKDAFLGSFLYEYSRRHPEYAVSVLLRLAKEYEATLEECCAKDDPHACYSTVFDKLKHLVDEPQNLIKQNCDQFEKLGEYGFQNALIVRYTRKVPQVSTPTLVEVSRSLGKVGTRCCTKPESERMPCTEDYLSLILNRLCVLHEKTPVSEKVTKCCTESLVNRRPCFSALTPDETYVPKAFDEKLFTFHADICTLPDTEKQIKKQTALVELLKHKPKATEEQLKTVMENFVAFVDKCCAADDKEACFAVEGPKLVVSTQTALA

[3] = target: T1, Amyloid-beta precursor protein (Homo sapiens, UniProt P05067); test: Binding affinity to human amyloid beta (1 to 42) aggregates measured by fluorescence polarization assay
T1 sequence (P05067 whole entry): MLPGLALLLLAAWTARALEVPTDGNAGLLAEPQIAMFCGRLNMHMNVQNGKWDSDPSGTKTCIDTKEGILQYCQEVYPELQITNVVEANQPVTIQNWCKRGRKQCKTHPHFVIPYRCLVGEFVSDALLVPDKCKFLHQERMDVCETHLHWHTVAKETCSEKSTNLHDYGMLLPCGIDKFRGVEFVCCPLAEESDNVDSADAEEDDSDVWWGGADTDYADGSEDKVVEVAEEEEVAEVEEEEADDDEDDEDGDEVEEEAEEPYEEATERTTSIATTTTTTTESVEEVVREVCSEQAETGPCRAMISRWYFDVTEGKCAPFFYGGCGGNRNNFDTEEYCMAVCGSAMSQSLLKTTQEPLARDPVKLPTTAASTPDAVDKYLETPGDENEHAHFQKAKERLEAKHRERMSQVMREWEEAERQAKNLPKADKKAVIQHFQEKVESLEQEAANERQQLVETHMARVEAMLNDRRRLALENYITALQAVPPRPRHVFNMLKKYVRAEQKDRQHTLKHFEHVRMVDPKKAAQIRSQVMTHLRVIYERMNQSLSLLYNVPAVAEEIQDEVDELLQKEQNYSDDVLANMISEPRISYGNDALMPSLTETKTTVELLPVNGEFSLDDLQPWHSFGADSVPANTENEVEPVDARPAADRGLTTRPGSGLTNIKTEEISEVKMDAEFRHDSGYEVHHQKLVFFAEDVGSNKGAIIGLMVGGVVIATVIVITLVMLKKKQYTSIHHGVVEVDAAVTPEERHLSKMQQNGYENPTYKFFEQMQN

[4] = target: T1, Amyloid-beta precursor protein; test: Binding affinity to human amyloid beta (1 to 42) monomer measured by fluorescence polarization assay
[5] = target: T1, Amyloid-beta precursor protein; test: Binding affinity to human amyloid beta (1 to 42) oligomer measured by fluorescence polarization assay
[6] = target: T1, Amyloid-beta precursor protein; test: Displacement of [125I]IMPY from amyloid beta (1 to 40) (unknown origin) measured by competitive radioligand binding assay
[7] = target: T1, Amyloid-beta precursor protein; test: Displacement of [125I]IMPY from amyloid beta (1 to 42) (unknown origin) measured by competitive radioligand binding assay
[8] = Drug uptake in brain of Tg mouse at 2 mins post injection; type: ADME, tissue-based; conditions: read-out: Drug uptake
[9] = Binding affinity to mouse brain amyloid beta plaques
[10] = Binding affinity to amyloid beta (unknown origin) aggregates; set-up: species or system Homo sapiens
[11] = Binding affinity to amyloid beta (unknown origin) oligomer; set-up: species or system Homo sapiens
[12] = Binding affinity to amyloid beta (unknown origin) monomer; set-up: species or system Homo sapiens

Question: Which results are given for `CCN(CC)c1ccc(/C=C/C2=[O+][B-](F)(F)OC(/C=C/c3ccc(N(CC)CC)nc3)=C2CCCOc2c(C)cccc2C)cn1`?
Answer: Kd [1]: 506 nM; Kd [2]: 7.5 nM

Question: For `COc1cc(/C=C/C(=O)/C(Cc2cn(CCCCCCNC(=O)CCNC(=O)CCNC(=O)CO[C@H]3CC[C@@]4(C)C(=CC[C@H]5[C@@H]6CC[C@H]([C@@H](C)CCCC(C)C)[C@@]6(C)CC[C@@H]54)C3)nn2)=C(O)/C=C/c2ccc(O)c(OC)c2)ccc1O`, which Kd (Albumin) is on record?
Answer: The Kd was 71000 nM.

Question: What about the Kd [3] of the same molecule?
Answer: Its Kd is 830 nM.

Question: And the Kd [4]?
Answer: The Kd was 2030 nM.

Question: And the Kd [5]?
Answer: Its Kd is 2170 nM.

Question: What does the source list for `CN1C(=O)C(=C/C=C/C=C/c2ccc(N(C)C)cc2)C(=O)N(C)C1=O`?
Answer: Kd [6]: 23.9 nM; Ki [7]: 13.7 nM; tissue uptake at 2 min [8]: 0.83 %ID/g

Question: For `CN(C)c1ccc(/C=C/C2=[O+][B-](F)(F)OC(/C=C/c3ccc(OCCOCCF)cc3)=C2)cc1`, which Kd [9] is on record?
Answer: Its Kd is 19.7 nM.

Question: With `CC1=CC(C)=[N+]2C1=C(CCCN1CCNc3ccccc31)c1c(C)cc(/C=C/c3ccc(N(C)C)s3)n1[B-]2(F)F` as the molecule, how does the Kd [10] read?
Answer: The Kd was 18 nM.

Question: And the Kd [11]?
Answer: The Kd was 27 nM.

Question: And the Kd [12]?
Answer: Its Kd is 6 nM.
